Assay results as given in ChEMBL document CHEMBL1137236, “Synthesis and neuroprotective effects of serofendic acid analogues” (2006).

Legend:
Cortical neurone [1] = test: Protective effect against L-glutamate-induced neurotoxicity in rat primary cortical neurons at 10 uM by trypan blue exclusion method; type: functional
Cortical neurone [2] = test: Protective effect against L-glutamate-induced neurotoxicity in rat primary cortical neurons at 1 uM by trypan blue exclusion method; type: functional

| SMILES | Activity (Cortical neurone [1]) | Activity (Cortical neurone [2]) |
| --- | --- | --- |
| C[S+]([O-])C[C@@H]1C(=O)[C@]23CC[C@H]1C[C@H]2[C@]1(C)CCC[C@@](C)(C(=O)O)[C@H]1CC3 (stereo partly specified) | 41.5% |  |
| C[S+]([O-])CC1=C[C@]23CC[C@H]1C[C@H]2[C@]1(C)CCC[C@@](C)(C(=O)O)[C@H]1CC3 (stereo partly specified) | 15.6% |  |
| C[C@@]12CCC[C@@](C)(C(=O)O)[C@H]1CC[C@@]13CC[C@@H](C[C@@H]21)[C@H](CS(C)(=O)=O)[C@H]3O | 20% |  |
| C[S+]([O-])C[C@H]1[C@H]2CC[C@@]3(CC[C@@H]4[C@](C)(CO)CCC[C@@]4(C)[C@@H]3C2)[C@@H]1O (stereo partly specified) | 7.79% |  |
| C[S+]([O-])C[C@H]1[C@H]2CC[C@@]3(CC[C@@H]4C(C)(C)CCC[C@@]4(C)[C@@H]3C2)[C@@H]1O (stereo partly specified) | 13.1% |  |
| CSC[C@H]1[C@H]2CC[C@@]3(CC[C@H]4[C@@](C)(CCC[C@@]4(C)C(=O)O)[C@@H]3C2)[C@@H]1O | 39.8% |  |
| C[C@]12N[C@H](Cc3ccccc31)c1ccccc12.O=C(O)/C=C\C(=O)O [DIZOCILPINE MALEATE] |  | 80.7% |
| C[S+]([O-])C[C@H]1[C@H]2CC[C@@]3(CC[C@H]4[C@@](C)(CCC[C@@]4(C)C(=O)O)[C@@H]3C2)[C@@H]1O (stereo partly specified) [SEROFENDIC ACID] | 45.3% |  |
| C[S+]([O-])CC1C[C@]23CC[C@H]1C[C@H]2[C@]1(C)CCC[C@@](C)(C(=O)O)[C@H]1CC3 (stereo partly specified) | 18.1% |  |
| COC(=O)[C@]1(C)CCC[C@@]2(C)[C@@H]3C[C@@H]4CC[C@@]3(CC[C@@H]21)[C@H](O)[C@H]4C[S+](C)[O-] (stereo partly specified) | 20.5% |  |
| C[S+]([O-])C[C@@H]1[C@H]2CC[C@@]3(CC[C@H]4[C@@](C)(CCC[C@@]4(C)C(=O)O)[C@@H]3C2)[C@H]1O (stereo partly specified) | 33.7% |  |
